In patent publication US20210087217A1, “NUCLEOTIDE HEMI-SULFATE SALT FOR THE TREATMENT OF HEPATITIS C VIRUS” (Atea Pharmaceuticals, Inc., priority 2017, published 2021):
“Also recorded” adds a separate entry of the source. Counter-ions that a name gives are not always drawn.

Legend:
[1] = Stability under refrigerator conditions (5 ± 3° C.) of Compound 2; format: physicochemical
Protocol: (§1) Three conditions were tested: accelerated stability (40 2° C./75±5% RH) over a 6-month time period, ambient stability (25±2° C./60±5% RH) over a 9-month period, and stability under refrigerator conditions (5 3° C.) over a 9-month time period. The results for accelerated stability, ambient stability, and refrigerator conditions are shown in Table 23, Table 24, and Table 25, respectively.
The only impurities detected even after 9 months were those from related substance 1 and water.

[2] = Plasma levels of metabolites following single oral doses of Compound 2, dogs; format: in vivo, dog; settings: for AUC(0-t) / Cmax / Tmax: dog, plasma, po
[3] = test system: HCV RNA (GT1-HCV); experiment: Plasma HCV RNA reduction in GT1-HCV infected patients (Part B); format: in vivo
Protocol: Plasma HCV RNA determinations were performed through the use of a validated commercial assay. Baseline was defined as the mean of Day −1 and Day 1 (pre-dose). […] The mean maximum HCV RNA reduction 24 hours post-dose following a single 300 mg dose was 1.7 log10 IU/mL and this compares to a-2 log10 IU/mL reduction after 1 day of 400 mg of sofosbuvir monotherapy in GT1a HCV-infected subjects. The mean maximum HCV RNA reduction 24 hours post-dose following a single 100 mg dose was 0.8 log10 IU/mL. The mean maximum HCV RNA reduction was 2.2 log10 IU/mL following a single 400 mg dose.

[4] = Storage of Compound 1 forms and amorphous salts at 25° C./60% RH for 14 days (HPLC, XRPD, observation)
Protocol: This initial characterization was followed by storage at 25° C./60% relative humidity (RH) for 14 days with analysis by […] and XRPD after 7 and 14 days. FIG. 4A is the XRPD after 14 days at 25° C./60% (RH).
The samples were then frozen with the solvent removed by lyophilization.
The samples were then subjected to storage at 25° C./60% relative humidity (RH) for 14 days with analysis by HPLC and XRPD after 7 (FIG. 4B) and 14 days (FIG. 5A).

[5] = Plasma profiles of Compound 2 metabolites in rats; settings: rats, single oral dose of Compound 2
Protocol: The results for a single 500 mg/kg dose in rats is shown in FIG. 17 and the results for a single 30, 100, or 300 mg/kg dose in monkeys is shown in FIG. 18.

[6] = Accelerated stability (40 ± 2° C./75 ± 5% RH) of Compound 2; format: physicochemical
Protocol: as §1
After six months, the total related substance 1 impurities was only 0.08% and there was no detection of related substance 2 and isomers.

CNc1nc(N)nc2c1ncn2[C@@H]1O[C@H](CO[P@@](=O)(N[C@@H](C)C(=O)OC(C)C)Oc2ccccc2)[C@@H](O)[C@@]1(C)F [Compound 2, hemi-sulfate salt of isopropyl((S)-(((2R,3R,4R,5R)-5-(2-amino-6-(methylamino)-9H-purin-9-yl)-4-fluoro-3-hydroxy-4-methyltetrahydrofuran-2-yl)methoxy)(phenoxy)phosphoryl)-L-alaninate]
Total impurities of related substance 1 ([1]; 5° C., after 9 months): 0.01%
Water content ([1]; 5° C., after 9 months): 0.32%
Appearance ([1]; 5 ± 3° C., 0 month): White
Assay ([1]; 5 ± 3° C., 0 month): 98.8%
IR ([1]; 5 ± 3° C., 0 month): correspond
Related Substance 1 Any other single impurity ([1]; 5 ± 3° C., 0 month): 0.01%
Related Substance 1 Total Impurities ([1]; 5 ± 3° C., 0 month): 0.01%
Water ([1]; 5 ± 3° C., 0 month): 0.45%
Appearance ([1]; 5 ± 3° C., 1st month): White
Assay ([1]; 5 ± 3° C., 1st month): 101.1%
Related Substance 1 Any other single impurity ([1]; 5 ± 3° C., 1st month): 0.01%
Related Substance 1 Total Impurities ([1]; 5 ± 3° C., 1st month): 0.01%
Water ([1]; 5 ± 3° C., 1st month): 0.19%
Appearance ([1]; 5 ± 3° C., 3rd month): White
Assay ([1]; 5 ± 3° C., 3rd month): 100.2%
IR ([1]; 5 ± 3° C., 3rd month): correspond
Related Substance 1 Any other single impurity ([1]; 5 ± 3° C., 3rd month): 0.01%
Related Substance 1 Impurity B ([1]; 5 ± 3° C., 3rd month): 0.01%
Related Substance 1 Total Impurities ([1]; 5 ± 3° C., 3rd month): 0.03%
Water ([1]; 5 ± 3° C., 3rd month): 0.32%
Appearance ([1]; 5 ± 3° C., 6th month): White
Assay ([1]; 5 ± 3° C., 6th month): 98.6%
IR ([1]; 5 ± 3° C., 6th month): correspond
Related Substance 1 Any other single impurity ([1]; 5 ± 3° C., 6th month): 0.01%
Related Substance 1 Total Impurities ([1]; 5 ± 3° C., 6th month): 0.03%
Water ([1]; 5 ± 3° C., 6th month): 0.42%
Appearance ([1]; 5 ± 3° C., 9th month): Off-white
Assay ([1]; 5 ± 3° C., 9th month): 101.4%
IR ([1]; 5 ± 3° C., 9th month): correspond
Related Substance 1 Any other single impurity ([1]; 5 ± 3° C., 9th month): 0.01%
Related Substance 1 Total Impurities ([1]; 5 ± 3° C., 9th month): 0.01%
Water ([1]; 5 ± 3° C., 9th month): 0.32%
Stability ([1]; refrigerator conditions (5° C.), 9 months): very chemically stable; also recorded: stable
AUC(0-t) ([2]; 30 mg/kg): 1300 ng·h/mL
AUC(0-t) ([2]; 100 mg/kg): 10200 ng·h/mL
Cmax ([2]; 100 mg/kg): 8120 ng/mL
Tmax ([2]; 100 mg/kg): 0.5 to 1 h
AUC(0-t) ([2]; 300 mg/kg): 44300 ng·h/mL
Cmax ([2]; 300 mg/kg): 21300 ng/mL
Tmax ([2]; 300 mg/kg): 204 h
Vomiting (animals affected) ([2]; dogs, high dose group): 5/5
Dose proportionality of Compound 1 exposures ([2]; dogs, single oral doses of Compound 2): supra-proportional
Mean maximum HCV RNA reduction ([3]; 24 hours post-dose, single 100 mg dose): 0.8 log10 IU/mL
Mean maximum HCV RNA reduction ([3]; 24 hours post-dose, single 300 mg dose): 1.7 log10 IU/mL
Mean maximum HCV RNA reduction ([3]; single 400 mg dose): 2.2 log10 IU/mL
Hygroscopicity [4]: not hydroscopic; also recorded: non-hygroscopic
Physical/chemical stability and appearance on storage ([4]; 25° C./60% RH, 14 days): stable white solid
Plasma levels of parent nucleotide prodrug [5]: very low plasma levels
Appearance ([6]; 40° C./75% RH, 0 month): White
Assay ([6]; 40° C./75% RH, 0 month): 98.8%
IR ([6]; 40° C./75% RH, 0 month): correspond
Related Substance 1: Any other single impurity ([6]; 40° C./75% RH, 0 month): 0.01%
Related Substance 1: Total Impurities ([6]; 40° C./75% RH, 0 month): 0.01%
Water ([6]; 40° C./75% RH, 0 month): 0.45%
Appearance ([6]; 40° C./75% RH, 1st month): White
Assay ([6]; 40° C./75% RH, 1st month): 101.5%
Related Substance 1: Any other single impurity ([6]; 40° C./75% RH, 1st month): 0.02%
Related Substance 1: Total Impurities ([6]; 40° C./75% RH, 1st month): 0.02%
Water ([6]; 40° C./75% RH, 1st month): 0.21%
Appearance ([6]; 40° C./75% RH, 3rd month): White
Assay ([6]; 40° C./75% RH, 3rd month): 99.6%
IR ([6]; 40° C./75% RH, 3rd month): correspond
Related Substance 1: Any other single impurity ([6]; 40° C./75% RH, 3rd month): 0.01%
Related Substance 1: Total Impurities ([6]; 40° C./75% RH, 3rd month): 0.02%
Water ([6]; 40° C./75% RH, 3rd month): 0.36%
Appearance ([6]; 40° C./75% RH, 6th month): White
Assay ([6]; 40° C./75% RH, 6th month): 99.5%
IR ([6]; 40° C./75% RH, 6th month): correspond
Related Substance 1: Any other single impurity ([6]; 40° C./75% RH, 6th month): 0.05%
Related Substance 1: Impurity F ([6]; 40° C./75% RH, 6th month): 0.01%
Related Substance 1: Total Impurities ([6]; 40° C./75% RH, 6th month): 0.08%
Water ([6]; 40° C./75% RH, 6th month): 0.41%
Stability ([6]; accelerated stability conditions (40° C./75% RH), 6 months): remains a white solid
